In PMC3833056 (The Journal of organic chemistry, 2010):

Key:
[1] = system: mycobacterial α-(1,6)-mannosyltransferases; assay: In vitro PPM-dependent α-; type: biochemical, Mycobacterium smegmatis; conditions: inhibitor 1.0 mM; acceptor 0.2 mM; several independent experiments
α-(1,6)-ManTs = assay: Mannosyl acceptor; type: biochemical, Mycobacterium smegmatis; conditions: up to 4 mM

## C[C@H]1O[C@H](c2cn(C[C@H]3O[C@@H](c4cn(C[C@H]5O[C@@H](c6cn(C[C@H]7O[C@@H](c8cn(C[C@H]9O[C@H](c%10cn(C[C@H]%11O[C@H](CCO)[C@@H](O)[C@@H](O)[C@@H]%11O)nn%10)[C@@H](O)[C@@H](O)[C@@H]9O)nn8)[C@@H](O)[C@@H](O)[C@@H]7O)nn6)[C@@H](O)[C@@H](O)[C@@H]5O)nn4)[C@@H](O)[C@@H](O)[C@@H]3O)nn2)[C@@H](O)[C@@H](O)[C@@H]1O [TOM-6]
[1]
  inhibition of α-(1,6)-mannosyltransferase activity: ca. 95%

## C[C@H]1O[C@H](c2cn(C[C@H]3O[C@@H](c4cn(C[C@H]5O[C@@H](c6cn(C[C@H]7O[C@@H](c8cn(C[C@H]9O[C@@H](c%10cn(C[C@H]%11O[C@@H](c%12cn(C[C@H]%13O[C@H](c%14cn(C[C@H]%15O[C@H](CCO)[C@@H](O)[C@@H](O)[C@@H]%15O)nn%14)[C@@H](O)[C@@H](O)[C@@H]%13O)nn%12)[C@@H](O)[C@@H](O)[C@@H]%11O)nn%10)[C@@H](O)[C@@H](O)[C@@H]9O)nn8)[C@@H](O)[C@@H](O)[C@@H]7O)nn6)[C@@H](O)[C@@H](O)[C@@H]5O)nn4)[C@@H](O)[C@@H](O)[C@@H]3O)nn2)[C@@H](O)[C@@H](O)[C@@H]1O [TOM-8]
[1]
  inhibition of α-(1,6)-mannosyltransferase activity: ca. 95%

## OCC[C@H]1O[C@H](Cn2cc([C@H]3O[C@H](CO)[C@@H](O)[C@H](O)[C@@H]3O)nn2)[C@@H](O)[C@H](O)[C@@H]1O [compound 31, 3,7-Anhydro-2,8-dideoxy-8-[4-(α-D-mannopyranosyl)-1H-1,2,3-triazol-1-yl]-D-glycero-D-talo-octitol]
α-(1,6)-ManTs
  mannosyl acceptor activity: poor mannosyl acceptor
